Measured values reported in US11173127B2, “Potato protein nanoparticles” (priority 2013, dated 2021).
Entries after “also recorded” stand apart in the source; their conditions may differ.

What was measured:
Type in all cases: physicochemical
[1] = Effect of potato protein on solubilization and transparency (visual); details: for appearance / turbidity of solution: 25 mM phosphate buffer pH 2.5, without potato protein
Procedure: First, the effect of potato protein on solubilization and transparency of vitamin D (VD) was assessed. Two aqueous buffer solutions (25 mM phosphate buffer, pH 2.5) containing the same concentration of VD (0.1 mg/ml) were used. Only one vial (left vial of FIG. 1a) also included 1.5 mg/ml potato protein. It is clearly seen that due to the presence of the potato protein, the solution containing VD is transparent, while the one devoid of potato protein is turbid.
Second, the effect of potato protein on solubilization and transparency of omega 3 was also assessed. Specifically, two aqueous buffer solutions (25 mM phosphate buffer, pH 2.5) contained the same concentration of 0.5 ul/ml omega 3 (ethyl ester DHA) colored with Nile red, which is only pink in a hydrophobic environment. One vial (left vial of FIG. 1b) also contained 1.5 mg/ml potato protein.
Thus, the potato protein nanoparticle solubilized the hydrophobic ingredient in a uniform, transparent, manner.

[2] = Simulated shelf life test at 23° C. and pH 2.5, exposed to light; details: pH 2.5, light
Procedure: PP-VD3 nanoparticles and VD3 suspensions were prepared in glass test tubes at pH 2.5, pasteurized for 1 min at 88° C. in open test tubes, and then capped, cooled and maintained at room temperature (23° C.) exposed to light, and followed with time. Samples for all shelf life tests were prepared without any preservative.
Samples of 1 ml containing 100 μg/ml VD3 in buffer and 1 mg/ml PP were prepared. The samples were individually prepared in order to perform total volume extractions, minimizing transfer/precipitation losses. Three tubes of each type were quantified immediately, to serve as control. All the remaining tubes were then pasteurized. Three tubes of each type were quantified immediately, to serve as reference. The other tubes were stored at the conditions described above. At each time point, three tubes of each type were taken from storage and their VD3 content was quantified. In all experiments, the tubes were stored covered with their lids to prevent evaporation.
Further tests that show the great advantage of the present invention in conferring exceptional stability to active ingredient is provided in FIG. 8. […] Thus, the shelf life test examined the VD3 stability at low pH (2.5) and exposure to light, during time.

[3] = VD retention during pasteurization at 72° C. and pH 2.5 (RP-HPLC); details: pH 2.5, at least 60 seconds, with 1.5 mg/ml potato protein vs without, VD 0.1 mg/ml
Procedure: The percentage of VD retention within the composition was assessed during pasteurization at 72° C. and pH 2.5 for up to 60 seconds, in the presence and absence of 1.5 mg/ml potato protein. VD concentration at time zero was 0.1 mg/ml. The measurements were done using RP-HPLC. The samples were kept in the dark and the vials' head spaces were filled with argon to prevent oxidation until the analysis.

[4] = Dynamic light scattering particle size distribution; details: VD without potato protein, 10-50 ug/ml VD, phosphate buffer 25 mM pH 2.5, bimodal distribution
Procedure: Dynamic light scattering (DLS) was used to evaluate size distribution of the potato protein-VD complexes.
The particle size of VD without potato protein was measured with different concentration of VD—10, 25, 35 and 50 ug/ml VD in a phosphate buffer (25 mM, pH 2.5). In all concentrations a bimodal distribution was obtained, with diameter larger than 1500 nm.
The size distributions of the VD—potato protein nano-particles were also measured at several concentrations of VD—10, 25, 35 and 50 μg/ml VD. The size distributions (FIG. 3) consisted of two fractions. The first fraction (84% by volume) comprised the small nano-particles of about 15 nm diameter, while the second fraction comprised nano-particles whose average diameter was around 80 nm.

[5] = VD retention at pH 2.5 and 25° C. (RP-HPLC); details: pH 2.5, 25° C., with 1.5 mg/ml potato protein vs without; VD 0.1 mg/ml
Procedure: The percentage of VD retention within the composition at pH 2.5, and 25° C. was also assessed, in the presence and absence of 1.5 mg/ml potato protein. VD concentration at time zero was 0.1 mg/ml. […] The measurements were done using RP-HPLC.

[6] = VD3 degradation under industrial pasteurization and hot-bottling conditions (88° C., 1 min); details: cooled 30 min to 30-35° C., pH 2.5, 100 μg/ml VD3, PP 1 mg/ml where present
Procedure: VD3 in phosphate buffer, and PP-VD3 nanoparticles were prepared at 1 mg/ml potato protein (PP) and 100 μg/ml VD3 at pH 2.5.
Samples (without a cap) were heated in a water bath for 1 min at 88° C. Following heat treatment, samples were capped and maintained at room temperature for 30 minutes until their temperature decreased to 30-35° C. Controls of VD3, PP and PP-VD3 nanoparticles, at pH 2.5, were extracted immediately without any heat treatment. The other samples were extracted at room temp after the above heat treatment.
VD3 was extracted and quantified using a protocol based on Haham, et al. (Haham, M., et al., Stability and bioavailability of vitamin D nanoencapsulated in casein micelles. Food & Function, 2012). The protocol, used on both aqueous solutions (with and without PP), was as follows: 1 ml of VD3-containing sample was put into a glass test tube. 3 ml of a 2:1 chloroform:methanol mixture was then added, and the tubes were vortexed for ˜20 seconds. […]
Following extraction, 1.5 ml of RP-HPLC mobile phase (methanol:acetonitrile:water 49.5:49.5:1, by volume) were added to the drying vial, given 15 minutes to equilibrate after vortexing, and then transferred to a 1.5 ml glass HPLC vial. […] In the mobile phase, VD3 has a local UV absorption maximum at 267 nm, and so the 267 nm chromatogram was used for VD3 quantification.

Row | SMILES | appearance / turbidity of solution [1] | VD degraded / lost ([2]; after one week) | post-pasteurization VD3 lost ([2]; within 24 hours) [%] | protection against heat induced degradation (VD retention) [3] | particle diameter (DLS) [4] [nm] | appearance / transparency of solution ([1]; 25 mM phosphate buffer pH 2.5, with 1.5 mg/ml potato protein) | protection of VD (VD retention) [5] | VD degraded / lost by heat treatment [6] [%]
1 | CC/C=C\C/C=C\C/C=C\C/C=C\C/C=C\C/C=C\CCC(=O)OCC [omega 3, omega 3 DHA (ethyl ester)] | much more turbid | – | – | – | – | – | – | –
2 | C=C1CC[C@H](O)C/C1=C/C=C1\CCC[C@]2(C)[C@@H]([C@H](C)CCCC(C)C)CC[C@@H]12 [VD, Vitamin D3] | turbid; also recorded: much more turbid | almost all | 52 | significant protection | > 1500 | transparent | significant protection | 55
